Experimental data from patent US9849194B2, “Compositions and methods for imaging and treatment” (New York University, priority 2014, dated 2017).
pIC50: −log10 of the molar value.

Tests used:
[1] = system: HCT116 cells; assay: cells; details: Homo sapiens, HCT-116, 48 h
Protocol: In order to determine the effectiveness of our nanoparticle system, we conducted a cancer cell viability study on our nanoparticle-drug system and compared it to effectiveness of the free drug (without the NP system). The Promega CellTiter-Blue® Cell Viability Assay was used. The drug, in one condition, and the Drug-NP complex, in another, were incubated with HCT-116 colon cancer cells for 48 hours. Different concentrations of the drug were used (ranging from 0 nM to 500 nM). After the designated incubation time, the IC50—the concentration of the drug needed to inhibit 50% of the cancer cells incubated—was then measured for both conditions.

[2] = system: HCT116 cells; assay: In vitro cytotoxicity assay, CellTiter-Blue; format: cell-based, human
Protocol: In vitro cytotoxicity assay. Cell viability was evaluated using the Promega CellTiter-Blue® Cell Viability assay. It uses the indicator dye resazurin to measure the metabolic capacity of cells—an indicator of cell viability. Viable cells retain the ability to reduce resazurin into resorufin, which is highly fluorescent. […] HCT116 cells were seeded at a density of 5×10^4 cells per well in 96-well flat-bottom plates and incubated in 10% FBS-medium for 24 hours. […] After 24 hours incubation, cells were washed with phosphate buffered saline (PBS, Amresco Biotechnolgy grade) and incubated with 20 μL of CellTiter-Blue® Reagent for additional 6 hours at 37° C. The fluorescence corresponding to the resorufin (which reflects the relative viable cell number) was measured at 590 nm using a Synergy H1 Hybrid Reader Biotek. The measurement was performed on untreated cells as a blank control.

[3] = system: HeLa cells; assay: Morphology of HeLa cells after hyperthermia and chemotherapy; format: cell-based; details: one-hour hyperthermia, confocal microscopy
Protocol: Morphology of the cells after hyperthermia and chemotherapy. To assess changes in cell morphology, HeLa cells (˜50000 cells/mL) were cultured in petri-dishes and incubated at 37° C. After 24 hours, DMEM was removed, replaced with the following solutions: DMEM (control), Dox ([Dox]=76 μM) and Dox-CB[7]NPs ([Dox]=76 μM, [Iron]=0.04 M) and incubated for 2 hours. After the treatment, the cells were washed with PBS 3 times and 1 mL of DMEM was added. One petri-dish from each condition was subjected to one hour of magnetic hyperthermia (frequency=464 kHz, current=26.8 kAm^−1) while other petri-dishes were used as control.
After magnetic hyperthermia treatment, DMEM was removed, the cells were washed with PBS three times and 1 ml of prepared formaldehyde solution (Vformaldehyde=1 mL, Vdistilled water=9 mL) was added to the cells for […] to fix them. After removal of formaldehyde solution the cells were allowed to dry at room temperature for 48 hours in a dark place to prevent photodegradation of Dox. Confocal microscopy used observe changes in the morphology of treated cells compared to control cells.

[4] = system: HeLa cells; assay: In vitro hyperthermia treatment, HeLa cell viability; format: cell-based; details: 2 hours incubation, with or without hyperthermia treatments
Protocol: Cell viability tests in presence and in absence of AMF were performed in order to evaluate the effect of combined treatments (hyperthermia and chemotherapy) on HeLa cell viability (FIG. 31). Hela cells were incubated for two hours with no additives, Dox, CB[7]NPs or Dox-CB[7]NPs. Selected samples were then subjected to an alternating magnetic field (464 kHz) for one hour. […] The lack of significant cytotoxicity in the cells incubated with Dox or CB[7]NPs is consistent with the limited cellular uptake of the free drug or the lack of toxicity of the nanocarrier respectively.
In vitro hyperthermia treatment. Viability tests on HeLa cells were performed to investigate the combined effect of both hyperthermia and chemotherapy treatment. Petri-dishes were seeded with HeLa cells (˜50000 cells/mL) and incubated at 37° C. After 24 hours, DMEM was removed, replaced with the following solutions: DMEM (control), Dox ([Dox]=76 μM) and Dox-CB[7]NPs ([Dox]=76 μM, [Iron]=0.04 M) and incubated for 2 hours. […] Two cell viability readings were taken, immediately after hyperthermia treatment and 18 hours after hyperthermia. For cell viability studies 200 μL of CTB per 1 mL of DMEM was added to each petri-dish and incubated for 6 hours after which the medium with CTB was transferred to 96 well plate to take the fluorescence reading.

[5] = system: HeLa cells; assay: In vitro cellular uptake in HeLa cells (fluorescence microscopy); format: cell-based

CC(=O)O[C@H]1C(=O)[C@@]2(C)[C@H]([C@H](OC(=O)c3ccccc3)[C@]3(O)C[C@H](OC(=O)[C@H](O)[C@@H](NC(=O)c4ccccc4)c4ccccc4)C(C)=C1C3(C)C)[C@]1(OC(C)=O)CO[C@@H]1C[C@@H]2O [Paclitaxel]
pIC50 [1]: 7.15

cucurbit[7]uril [CB[7]]
cytotoxic effects ([2]; 24 hours of incubation, concentrations as high as 100 μM): Neither CB[7] nor CB[7]NPs displayed cytotoxic effects
cytotoxic effects ([2]; CB[7] concentrations of 1 to 100 μM, 24 hour incubation): neither CB[7] nor CB[7]NPs elicit cytotoxic effects

COc1cccc2c1C(=O)c1c(O)c3c(c(O)c1C2=O)C[C@@](O)(C(=O)CO)C[C@@H]3O[C@H]1C[C@H](N)[C@H](O)[C@H](C)O1 [Dox, Doxorubicin]
cell morphology after hyperthermia session [3]: normal morphology
reduction in viability [4]: Minimal reductions in viability
fluorescence of treated cells ([5]; 2 hours, [DOX]=10 μM): weakly fluorescent
normalized fluorescence intensity relative to red emission of Dox-CB[7]NPs ([5]; 3 hours at 37° C., same dose of Dox, excitation at 488 nm): 40%
